In PubChem BioAssay AID1963435 (Molecular Pharmacology Branch, DTP, NCI, 2024):

Test system: PANC-1 complex spheroid growth, percent test/control
Assay: Anticancer human tumor PANC-1 cell line growth inhibition [Asc];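 note: spheroids exposed to agents for 7 days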;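 for viability, T/C: percent viability relative to DMSO vehicle wells taken as 100%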
Conditions: for IC50: curve of first compound; for viability, T/C: stronger effect = lower value
How it was run: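 Complex solid-tumor spheroids incorporating human endothelial and mesenchymal stem cells received single agents or combinations over half-log dilution ranges anchored to clinical Cmax.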

[1] = second compound 0.00949 µM, first compound 0.0316 µM
[2] = second compound 0.00949 µM, first compound 0.1 µM
[3] = second compound 0.00949 µM, first compound 0.316 µM
[4] = second compound 0.00949 µM, first compound 1 µM
[5] = second compound 0.00949 µM, first compound 3.16 µM
[6] = second compound 0.00949 µM, first compound 10 µM
[7] = second compound 0.03 µM, first compound 0.0316 µM
[8] = second compound 0.03 µM, first compound 0.1 µM
[9] = second compound 0.03 µM, first compound 0.316 µM
[10] = second compound 0.03 µM, first compound 1 µM
[11] = second compound 0.03 µM, first compound 3.16 µM
[12] = second compound 0.03 µM, first compound 10 µM
[13] = second compound 0.0949 µM, first compound 0.0316 µM
[14] = second compound 0.0949 µM, first compound 0.1 µM
[15] = second compound 0.0949 µM, first compound 0.316 µM
[16] = second compound 0.0949 µM, first compound 1 µM
[17] = second compound 0.0949 µM, first compound 3.16 µM
[18] = second compound 0.0949 µM, first compound 10 µM
[19] = second compound 0.3 µM, first compound 0.0316 µM
[20] = second compound 0.3 µM, first compound 0.1 µM
[21] = second compound 0.3 µM, first compound 0.316 µM
[22] = second compound 0.3 µM, first compound 1 µM
[23] = second compound 0.3 µM, first compound 3.16 µM
[24] = second compound 0.3 µM, first compound 10 µM
[25] = second compound 0.949 µM, first compound 0.0316 µM
[26] = second compound 0.949 µM, first compound 0.1 µM
[27] = second compound 0.949 µM, first compound 0.316 µM
[28] = second compound 0.949 µM, first compound 1 µM
[29] = second compound 0.949 µM, first compound 3.16 µM
[30] = second compound 0.949 µM, first compound 10 µM
[31] = second compound 3 µM, first compound 0.0316 µM
[32] = second compound 3 µM, first compound 0.1 µM
[33] = second compound 3 µM, first compound 0.316 µM
[34] = second compound 3 µM, first compound 1 µM
[35] = second compound 3 µM, first compound 3.16 µM
[36] = second compound 3 µM, first compound 10 µM

**Q.** What does the source list for `C#Cc1c(F)ccc2cc(O)cc(-c3ncc4c(N5CC6CCC(C5)N6)nc(OCC56CCCN5CC(F)C6)nc4c3F)c12` (centres undefined) + CCN1C(C(=O)NC23CCC(C(=O)O)(CC2)CC3)C(c2cccc(Cl)c2F)C2(C(=O)Nc3cc(Cl)ccc32)C12CCCCC2?
**A.** IC50 (second compound 0.00949 µM): > 10 µM; IC50 (second compound 0.03 µM): > 10 µM; IC50 (second compound 0.0949 µM): > 10 µM; IC50 (second compound 0.3 µM): > 10 µM; IC50 (second compound 0.949 µM): > 10 µM; IC50 (second compound 3 µM): > 10 µM; viability, T/C [1]: 99.1%; viability, T/C [2]: 79.1%; viability, T/C [3]: 89.9%; viability, T/C [4]: 90.8%; viability, T/C [5]: 96.3%; viability, T/C [6]: 84%; viability, T/C [7]: 93.3%; viability, T/C [8]: 90.2%; viability, T/C [9]: 83.4%; viability, T/C [10]: 92.6%; viability, T/C [11]: 94.3%; viability, T/C [12]: 82.3%; viability, T/C [13]: 94%; viability, T/C [14]: 84.3%; viability, T/C [15]: 85%; viability, T/C [16]: 82.2%; viability, T/C [17]: 90.6%; viability, T/C [18]: 88.8%; viability, T/C [19]: 97%; viability, T/C [20]: 84.3%; viability, T/C [21]: 92.6%; viability, T/C [22]: 93.2%; viability, T/C [23]: 98.7%; viability, T/C [24]: 90.9%; viability, T/C [25]: 98.4%; viability, T/C [26]: 85.5%; viability, T/C [27]: 92.8%; viability, T/C [28]: 90.5%; viability, T/C [29]: 93.7%; viability, T/C [30]: 82.8%; viability, T/C [31]: 104%; viability, T/C [32]: 91.7%; viability, T/C [33]: 89.2%; viability, T/C [34]: 87.7%; viability, T/C [35]: 95.1%; viability, T/C [36]: 82.6%

**Q.** What does the source list for `C=C(F)C(=O)N1CCN(c2nc(OCC3CCCN3C)nc3c2CCN(c2cccc4cccc(Cl)c24)C3)CC1CC#N` (centres undefined) + CCN1C(C(=O)NC23CCC(C(=O)O)(CC2)CC3)C(c2cccc(Cl)c2F)C2(C(=O)Nc3cc(Cl)ccc32)C12CCCCC2?
**A.** IC50 (second compound 0.00949 µM): 7.22 µM; IC50 (second compound 0.03 µM): 6.88 µM; IC50 (second compound 0.0949 µM): 6.94 µM; IC50 (second compound 0.3 µM): 7.25 µM; IC50 (second compound 0.949 µM): 7.02 µM; IC50 (second compound 3 µM): 7.78 µM; viability, T/C [1]: 99%; viability, T/C [2]: 89.5%; viability, T/C [3]: 88.4%; viability, T/C [4]: 98.5%; viability, T/C [5]: 105%; viability, T/C [6]: 31.7%; viability, T/C [7]: 103%; viability, T/C [8]: 96.7%; viability, T/C [9]: 97%; viability, T/C [10]: 97.7%; viability, T/C [11]: 88%; viability, T/C [12]: 31.6%; viability, T/C [13]: 105%; viability, T/C [14]: 102%; viability, T/C [15]: 108%; viability, T/C [16]: 109%; viability, T/C [17]: 106%; viability, T/C [18]: 24.1%; viability, T/C [19]: 99.5%; viability, T/C [20]: 93.1%; viability, T/C [21]: 103%; viability, T/C [22]: 108%; viability, T/C [23]: 100%; viability, T/C [24]: 30.5%; viability, T/C [25]: 117%; viability, T/C [26]: 104%; viability, T/C [27]: 114%; viability, T/C [28]: 109%; viability, T/C [29]: 97.1%; viability, T/C [30]: 28.9%; viability, T/C [31]: 112%; viability, T/C [32]: 108%; viability, T/C [33]: 115%; viability, T/C [34]: 126%; viability, T/C [35]: 96.7%; viability, T/C [36]: 37%
